Test: Effect of EO adduct added to 62% K-glyphosate solution (clear or hazy)
Format: physicochemical
Settings: ~25% added into a 62% K-glyphosate solution
Excerpt: Therefore, even a slight reduction in concentration of the higher EO adduct could improve the cloud point of glyphosate formulation dramatically.

OCCOCCO [diethylene glycol]
Appearance of solution after addition: clear solution

From patent US8357636B2, “Alkoxylated alkylamines/alkyl ether amines with peaked distribution” (Akzo Nobel N.V., priority 2004, dated 2013)
